This passage reports CC50 and EC50 results from patent publication US6638919B2, “Antiviral purine derivatives” (University College Cardiff Consultants Limited, priority 2001, dated 2003).

Structures can show the parent of a compound that is named as a salt. Some results are limits rather than exact numbers.

What all share (assay type): cell-based
One data set concerns CEM cells. The experiment in a line: Toxicity to mock-infected CEM cells (CC50). The conditions noted are these: Table III; toxicity to CEM cells; read-out: CC50 CEN. As to the method:
(§1) Then 100 μL of the infected cell suspension was transferred to microtiter plate wells and mixed with 100 μL of the appropriate dilutions of the test compounds.
CC50 CEM: CC50 in μM for toxicity to CEM cells.
CC50 CEM: CC50 μM for toxicity to CEM cells

A further data set has as its system HIV-1. The experiment in a line: Inhibition of HIV-1 giant cell formation in CEM cells. The conditions noted are these: Table III; EC50 for inhibition of HIV1 in CEM cells; read-out: HIV1 CBM. As to the method: as §1
HIV 1 CEM: EC50 in μM for inhibition of HIV1 in CEM cells

Another data set relates to HIV-2. The experiment in a line: Inhibition of HIV-2 giant cell formation in CEM cells. The conditions noted are these: Table III; EC50 for inhibition of HIV-2 in CEM cells; read-out: HIV2 CBM. As to the method:
as §1
HIV1 CEM: EC50 in μM for inhibition of […] in CEM cells.
HIV2 CEM: EC50 in μM for inhibition of HIV-2 in CEM cells

Broadly, the CC50 is the concentration that lowers cell viability or growth by half. With `C[C@H](NP(=O)(O)OC[C@@H]1C=C[C@H](n2cnc3c(NC4CC4)nc(N)nc32)C1)C(=O)O` [Compound 1540, (1S,4R)-4-(2-amino-6-cyclopropylamino-9H-purin-9-yl)-2-cyclopentene-1-methanol O-(L-alaninyl)-phosphate diammonium salt], the CC50 in the data set with CEM cells is 115000 nM. In addition, the figures for the EC50 in the data set on HIV-1 and with HIV-2 were 1200 nM and 950 nM, respectively.

Take `COC(=O)[C@@H](C)NP(=O)(OC[C@@H]1C=C[C@H](n2cnc3c(NC4CC4)nc(N)nc32)C1)Oc1ccccc1` (stereo partly drawn) [Compound 1583, (1 S,4R)-4-(2-amino-6-cyclopropyiamino-9H-purin-9-yl)-2-cyclopentene-1-methanol O-[phenyl-(methoxy-D-alaninyl)]-phosphate]: the CC50 with CEM cells was determined as 64300 nM. Besides, the results for the EC50 in the data set on HIV-1 and in the data set with HIV-2 were 1380 nM and 4500 nM, respectively.

Take `COC(=O)[C@H](Cc1c[nH]c2ccccc12)NP(=O)(OC[C@@H]1C=C[C@H](n2cnc3c(NC4CC4)nc(N)nc32)C1)Oc1ccccc1` (stereo partly drawn) [Compound 1750, (1S,4R)-4-(2-amino-6-cyclopropylamino-9H-purin-9-yl)-2cyclopentene-1-methanol O-(phenylmethoxy-L-tryptophanyl phosphate)]: the CC50 in the data set on CEM cells came out at 18300 nM. In addition, the EC50 with HIV-1 was 3000 nM; in the data set on HIV-2, 3670 nM.

Consider `C[C@H](NP(=O)(OC[C@@H]1C=C[C@H](n2cnc3c(NC4CC4)nc(N)nc32)C1)Oc1ccccc1)C(=O)OC1CCCCCC1` (stereo partly drawn) [Compound 1752, (1S,4R)-4-(2-amino-6-cyclopropylamino-9-H-purin-9-yl)2-cyclopentene-1-methanol O-(phenyl (cycloheptanyl)oxyalaninyl phosphate)], for which, in the data set with CEM cells, the CC50 is 6320 nM. For the same molecule, the EC50 was determined as 1300 nM in the data set on HIV-1 and 1050 nM with HIV-2.

Consider `C[C@H](NP(=O)(OC[C@@H]1C=C[C@H](n2cnc3c(NC4CC4)nc(N)nc32)C1)Oc1ccccc1)C(=O)OCc1ccccc1` (stereo partly drawn) [Compound 1582, (1S,4R)-4-(2-amino-6-cyclopropylamino-9H-purin-9-yl)-2-cyclopentene-1-methanol O-[phenyl-(enzoxy-L-alaninyl)]-phosphate], for which, in the data set with CEM cells, the CC50 worked out at 12500 nM. In addition, the EC50 was 83 nM in the data set with HIV-1 and 110 nM in the data set with HIV-2.

In the case of `CC[C@H](C)[C@H](NP(=O)(OC[C@@H]1C=C[C@H](n2cnc3c(NC4CC4)nc(N)nc32)C1)Oc1ccccc1)C(=O)OC` (stereo partly drawn) [Compound 1751, (1S,4R)-4-(2-amino-6-cyclpropylamino-9H purin-9-yl)-2-cyclopentene-1-methanol O-(phenylmethoxy-L-isoleucinyl phosphate)], the CC50 in the data set on CEM cells came out at 24200 nM. The EC50 amounted to 7000 nM with HIV-1 and 5330 nM in the data set with HIV-2.

`COC(=O)C(C)(C)NP(=O)(OC[C@@H]1C=C[C@H](n2cnc3c(NC4CC4)nc(N)nc32)C1)Oc1ccccc1` (stereo partly drawn) [Compound 1584, (1S,4R)-4-(2-amino-6-cyclopropylamino-9H-purin-9-yl)-2-cyclopentene-1-methanol O-[phenyl-(methoxy-α,adimethylglycinyl)]-phosphate]: the CC50 in the data set with CEM cells worked out at 8910 nM. Moreover, the figures for the EC50 in the data set on HIV-1 and in the data set with HIV-2 were 67 nM and 60 nM, respectively.

Regarding `COC(=O)[C@H](Cc1ccccc1)NP(=O)(OC[C@@H]1C=C[C@H](n2cnc3c(NC4CC4)nc(N)nc32)C1)Oc1ccccc1` (stereo partly drawn) [Compound 1585, (1,S,4R)-4-(2-amino-6-cyclopropylamino-9H-purin-9-yl)-2-cyclopentee-1-methain O-[phenyl-(methoxy-L-phenylalaninyl)]-phosphate], the CC50 in the data set with CEM cells is 36100 nM. The EC50 in the data set on HIV-1 was 1420 nM; with HIV-2 it was 2130 nM.

In the case of `COC(=O)CNP(=O)(OC[C@@H]1C=C[C@H](n2cnc3c(NC4CC4)nc(N)nc32)C1)Oc1ccccc1` (stereo partly drawn) [Compound 1588, (1 S,4R)-4-(2-amino-6-cyclopropylamino-9H-purin-9-yl)-2-cyclopentene-1-methanol O-[phenyl-(methoxy-glycinyl)]-phosphate], in the data set with CEM cells, the CC50 was at least 100000 nM. Moreover, the values for the EC50 with HIV-1 and in the data set with HIV-2 were 1780 nM and 2000 nM, respectively.
